# US20250368629A1, “FLAVONOID COMPOUNDS AND METHODS AND MATERIALS FOR USING FLAVONOID COMPOUNDS TO TREAT FIBROTIC CONDITIONS” (Mayo Foundation for Medical Education and Research, priority 2022, published 2025)
# pEC50: −log10 of the molar value.
# Tests used:
# [1] = tested on: senescent human adult lung fibroblasts; assay: Senescent fibroblast survival (DAPI cell counts); type: cell-based; settings: 96 hours, 3 point and 6-point dose response
# Procedure: (§1) For senescent fibroblast survival experiments, human adult lung fibroblasts were replicatively passaged until senescence (confirmed by RNA and senescence associated beta galactosidase staining). Cells were then plated into 96-well plates and treated with the indicated compound and incubated for 96 hours. Cells were then fixed using 4% PFA, permeabilized using 0.25% triton x-100, and nuclear stained using DAPI. Cells were then imaged using a 4× objective on a Cytation5 microscope and cell counts were quantified using automated software (Biotek Gen5). Data shown are plotted as % survival, normalized to the vehicle treated well. Mean+/−SEM, N=3 independent experiments. For the TGFβ stimulated collagen deposition experiments (square datapoints), human adult lung fibroblasts (passage 3) were plated into 96-well plates and treated with the indicated compound +2 ng/mL TGFβ to stimulated collagen expression. Cells were incubated for 96 hours, fixed using 4% PFA, permeabilized using 0.25% triton x-100, and stained using a primary antibody recognizing type I collagen and a secondary infrared conjugated antibody. Wells were then imaged at 1× using a Odyssey Lx (LI-CORE) infrared imager and collagen intensity was quantified using automated software. Data shown are plotted as % collagen intensity, normalized to the vehicle treated well. Mean+/−SEM, N=3 independent experiments.
# [2] = tested on: Human adult lung fibroblasts (passage 3); assay: TGFβ stimulated collagen deposition; type: cell-based; settings: +2 ng/mL TGFβ, 96 hours
# Procedure: as §1
# [3] = tested on: senescent human adult lung fibroblasts; assay: Apoptosis of senescent lung fibroblasts (cleaved caspase-3, DAPI); type: cell-based; settings: replicatively senescent human adult lung fibroblasts, 96 hours, 6-point dose-response, N=3; for pEC50: read-out: Senescent fibroblast apoptosis EC50
# Procedure: (§2) Human adult lung fibroblasts were replicatively passaged until senescence (confirmed by RNA and senescence associated beta galactosidase staining). In a parallel experiment, low passage proliferating fibroblasts from the same donor were compared. Cells were plated into 96-well plates and treated with the indicated compound (6-point dose-response) and incubated for 96 hours. Cells were then fixed using 4% PFA, permeabilized using 0.25% triton x-100, and nuclear stained using a primary antibody for cleaved caspase-3, secondary fluorescence conjugated antibody, and DAPI. Cells were then imaged using a 4× objective on a Cytation5 microscope and cell counts were quantified using automated software (Biotek Gen5). Data shown are the EC50 values calculated for each compounds efficacy to induce apoptosis in senescence vs. proliferating lung fibroblasts, from the calculated dose-response curves, N=3 independent experiments.
# [4] = tested on: low passage proliferating fibroblasts; assay: Apoptosis of low passage proliferating lung fibroblasts (cleaved caspase-3, DAPI); type: cell-based, human; settings: low passage proliferating fibroblasts from the same donor, 96 hours, 6-point dose-response, N=3; for pEC50: read-out: Proliferating fibroblast apoptosis EC50
# Procedure: as §2
# [5] = tested on: Human adult lung fibroblasts (passage 3); assay: Fibroblast activation (TGFβ, alpha-smooth muscle actin); type: cell-based; settings: +2 ng/mL TGFβ, 96 hours, alpha-smooth muscle actin intensity
# Procedure: Human adult lung fibroblasts (passage 3) were plated into 96-well plates and treated with the indicated compound (6-point dose-response) +2 ng/mL TGFβ to stimulated fibroblast activation. Cells were incubated for 96 hours, fixed using 4% PFA, permeabilized using 0.25% triton x-100, and stained using a primary antibody recognizing alpha-smooth muscle actin and a secondary fluorescent conjugated antibody, and DAPI. Cells were then imaged using a 4× objective on a Cytation5 microscope and alpha-smooth muscle actin intensity was quantified using automated software (Biotek Gen5). Data shown are the IC50 values for each compounds efficacy at reducing expression of alpha-smooth muscle actin, calculated from the calculated dose-response curves, N=3 independent.
# DRAK1 = target: T1, DRAK1 (Homo sapiens, UniProt Q9UEE5); assay: DRAK1 kinase activity assay (radiolabeled ATP, Reaction Biology); type: biochemical; settings: FIG. 30
# T1 construct: purchased Reaction Biology
# T1 sequence (Q9UEE5 1-414): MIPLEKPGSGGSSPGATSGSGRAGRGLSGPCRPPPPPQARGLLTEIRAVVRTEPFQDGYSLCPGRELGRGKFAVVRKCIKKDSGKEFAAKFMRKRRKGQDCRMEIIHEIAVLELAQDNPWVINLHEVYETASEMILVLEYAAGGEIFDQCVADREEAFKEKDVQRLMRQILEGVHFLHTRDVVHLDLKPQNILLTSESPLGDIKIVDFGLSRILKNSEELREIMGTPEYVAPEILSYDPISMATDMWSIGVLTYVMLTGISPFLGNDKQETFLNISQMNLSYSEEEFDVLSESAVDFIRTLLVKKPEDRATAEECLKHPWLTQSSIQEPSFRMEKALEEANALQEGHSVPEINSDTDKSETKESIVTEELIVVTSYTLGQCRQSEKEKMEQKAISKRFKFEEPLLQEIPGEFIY
# Procedure: DRAK1 kinase activity was also assessed. […] A DRAK1 kinase activity was performed by Reaction Biology. DRAK1 kinase activity was measured and plotted (FIG. 30).
# col1a2-mTmG mice = assay: Bleomycin injury and lung fibrosis, flow sorted lung cell populations, qPCR; type: in vivo, mouse; settings: daily from day 10 after bleomycin injury, lungs sorted on day 14
# Procedure: Seven days prior to injury col1a2-mTmG mice were treated with tamoxifen to turn on GFP expression in collagen producing fibroblasts. F-19 was administered daily starting on day 10 after injury, lungs were isolated, and lung tissue was flow sorted for fibroblasts, epithelial cells, and leukocytes on day 14. The sorted cells were subjected to RNA isolation followed by qPCR analysis of the indicated genes in each population of cells. N=3 mice/group.
# in vitro = in vitro ADME; settings: rat; for Plasma bound / Plasma unbound: 4 h
# Procedure: Plasma protein binding assays were also performed (Table 2). Compounds were incubated with rat plasma for 4 hours. The percent of F-4N recovered was analyzed by LC-MS. Warfarin was used as a control for a compound with high plasma protein binding. Analysis performed by Cyprotex (Framingham, MA).
# wild type mice = assay: Comparative flavonoid efficacy and toxicity in aged brain and liver (real-time PCR); type: in vivo, mouse
# From the text: Five-month-old and twenty-eight month old wild type mice were oral gavage treated with the indicated concentrations of flavonoids (F, Q, compound 19, or compound 20) or vehicle for four consecutive days and were euthanized one week later.
Structure (SMILES),pEC50 [3],pEC50 [4],pEC50 [5],further results
"CCOc1ccc(-c2oc3ccccc3c(=O)c2O)cc1OCC [2-(3,4-diethoxyphenyl)-3-hydroxy-4h-1-benzopyran-4-one]",–,–,–,senescent fibroblast survival (in words) [1]: effective toxicity against senescent cells; TGFβ stimulated collagen deposition (in words) [2]: blocked collagen deposition
CCOc1ccc(-c2oc3ccc(C)cc3c(=O)c2O)cc1OC [2-(4-ethoxy-3-methoxyphenyl)-3-hydroxy-6-methylchromen-4-one],–,–,–,senescent fibroblast survival (in words) [1]: effective toxicity against senescent cells; TGFβ stimulated collagen deposition (in words) [2]: blocked collagen deposition
COc1cccc2oc(-c3ccc(OCc4ccccc4)cc3)c(O)c(=O)c12 [5-MeOH—F-20],6.46,5.26,6.05,–
COc1cccc2oc(-c3ccc(OCc4ccncc4)cc3)c(O)c(=O)c12 [5-MeOH—F—4N],–,–,5.68,Senescent fibroblast apoptosis EC50 [3]: inactive; Proliferating fibroblast apoptosis EC50 [4]: inactive; DRAK1 kinase activity (DRAK1): inactive
CCOc1ccc(-c2oc3ccc(OC)cc3c(=O)c2O)cc1 [6-MeOH—F-19],5.57,4.82,5.40,–
COc1ccc2oc(-c3ccc(OCc4ccccc4)cc3)c(O)c(=O)c2c1 [6-MeOH—F-20],6.10,5.29,5.70,–
CCOc1ccc(-c2oc3ccccc3c(=O)c2O)cc1OC [F-19(3MeOH)],–,4.98,5.19,–
CCCOc1ccc(-c2oc3ccccc3c(=O)c2O)cc1 [F-19(Me)],5.47,4.71,5.40,–
CCOc1ccc(-c2oc3ccccc3c(=O)c2O)cc1 [F-19],5.62,4.61,5.62,"senescence markers or inflammatory cytokines in leukocytes (CD45+ cells), qPCR (col1a2-mTmG mice): No changes"
O=c1c(O)c(-c2ccc(OCc3ccccc3)cc2)oc2ccccc12 [F-20],5.82,4.56,5.70,–
O=c1c(O)c(-c2ccc(OCc3ccccn3)cc2)oc2ccccc12 [F—2N],–,–,–,Senescent fibroblast apoptosis EC50 [3]: inactive; Proliferating fibroblast apoptosis EC50 [4]: inactive; Fibroblast activation (EC50) [5]: inactive
O=c1c(O)c(-c2ccc(OCc3cccnc3)cc2)oc2ccccc12 [F—3N],4.36,–,–,Proliferating fibroblast apoptosis EC50 [4]: inactive; Fibroblast activation (EC50) [5]: inactive
O=c1c(O)c(-c2ccc(OCC3CC3)cc2)oc2ccccc12 [F—CP],6.05,4.96,5.96,–
"O=c1c(O)c(-c2ccc(O)c(O)c2)oc2cc(O)cc(O)c12 [Quercetin, quercetin]",–,–,–,"recovery at 4 h, 5 μM (in vitro): 0.8%; Plasma bound (in vitro; 5 μM): 95%; Plasma unbound (in vitro; 5 μM): 5.0%; CD68 expression (indicator of inflammatory activation) in brain or liver (wild type mice; oral gavage four consecutive days, euthanized one week later): lack of drug-induced toxicity"
CC(=O)CC(c1ccccc1)c1c(O)c2ccccc2oc1=O (stereo not shown) [Warfarin],–,–,–,"recovery at 4 h, 2 μM (in vitro): 100%; Plasma bound (in vitro; 2 μM): 99%; Plasma unbound (in vitro; 2 μM): 0.971%"
O=c1c(O)c(-c2ccc(O)c(O)c2)oc2cc(O)ccc12 [fisetin],–,–,–,"CD68 expression (indicator of inflammatory activation) in brain or liver (wild type mice; mouse, in vivo, po): lack of drug-induced toxicity"
